From patent US10369165B2, “Composition containing active components of Dracocephalum moldavica L. against myocardial ischemia-reperfusion injury” (Nanjing Ruiying Runze Biopharmaceutical Technology Co., Inc., priority 2014, dated 2019)

Assays:
[1] = system: rat primary cardiac myocytes; test: pH of culture supernatant of rat primary cardiac myocytes injured by nitrogen hypoxia/reoxygenation; format: cell-based; details: 30 μM; culture medium supernatant; hypoxia 6 h, reoxygenation 5 h
Experimental: Experiment method: Wistar ventricular myocytes of neonatal rat aged 2 d are isolated under asepsis condition, then the myocytes are digested with mixture of digestive enzymes (0.06% trypsin and 0.1% type II collagenase mixed in equal amount) for multiple times in a short time. Cardiac myocytes are purified using differential adhesion method. […] The cells are cultured for 24 hours, then the supernatant is discarded, and the cells are washed with PBS three times. All of the cells are classified into contrast group, hypoxia/reoxygenation injury group, hypoxia/reoxygenation model+compatible composition group. After pre-treatment for 24 h, all of the hypoxia/reoxygenation injury groups are placed in glucose-free Earle's solution which has been previously saturated with mixture of 95% N2+5% CO2 for 1 hour. The cells are cultured in hypoxic condition for 6 h at 37° C. in constant-temperature incubator introduced with the mixture of 95% N2+5% CO^2. Then the hypoxia treated cells are subjected to reoxygenation in normal condition for 5 h with the high glucose medium DMEM (containing 10% FBS) which has been previously saturated with mixture of 95% air+5% CO2. At the same time, the cells are incubated with compatible compositions. After treating the experimental groups of cells, the supernatant is collected; the pH of supernatant of culture medium is measured directly with pH meter.

[2] = system: rat primary cardiac myocytes; test: LDH leak of rat primary cardiac myocytes injured by nitrogen hypoxia/reoxygenation; format: cell-based; details: 30 μM; culture medium supernatant; hypoxia 6 h, reoxygenation 5 h
Experimental: Experiment Method: Wistar ventricular myocytes of neonatal rat aged 2 d are isolated under asepsis condition, then the myocytes are digested with mixture of digestive enzymes (0.06% trypsin and 0.1% type II collagenase mixed in equal amount) for multiple times in a short time. Cardiac myocytes are purified using differential adhesion method. […] The cells are cultured for 24 hours, then the supernatant is discarded, and the cells are washed with PBS three times. All of the cells are classified into contrast group, hypoxia/reoxygenation injury group, hypoxia/reoxygenation model+compatible composition group. After pre-treatment for 24 h, all of the hypoxia/reoxygenation injury groups are placed in glucose-free Earle's solution which has been previously saturated with mixture of 95% N2+5% CO2 for 1 hour. The cells are cultured in hypoxic condition for 6 h at 37° C. in constant-temperature incubator introduced with mixture of 95% N2+[…]. Then the hypoxia treated cells are subjected to reoxygenation in normal condition for 5 h with the high glucose medium DMEM (containing 10% FBS) which has been previously saturated with mixture of 95% air+[…]. At the same time, the cells are incubated with compatible compositions. After treating the experimental groups of cells, the supernatant is collected; the content of LDH leak in supernatant of culture medium is measured according to the steps of LDH kit.

[3] = system: myocardial ischemia-reperfusion injury (MIRI); details: previous studies; cited from earlier work
[4] = system: rat primary cardiac myocytes; test: ATP, ADP, AMP content (HPLC) of rat primary cardiac myocytes injured by nitrogen hypoxia/reoxygenation; format: cell-based; details: 30 μM, cell lysate supernatant
Experimental: Experiment method: Wistar ventricular myocytes of neonatal rat aged 2 d are isolated under asepsis condition, then the myocytes are digested with mixture of digestive enzymes (0.06% trypsin and 0.1% type II collagenase mixed in equal amount) for multiple times in a short time. Cardiac myocytes are purified using differential adhesion method. […] The cells are cultured for 24 hours, then the supernatant is discarded, and the cells are washed with PBS three times. All of the cells are classified into contrast group, hypoxia/reoxygenation injury group, hypoxia/reoxygenation model+compatible composition group. After pre-treatment for 24 h, all of the hypoxia/reoxygenation injury groups are placed in glucose-free Earle's solution which has been previously saturated with mixture of 95% N2+5% CO2 for 1 hour. The cells are cultured in hypoxic condition for 6 h at 37° C. in constant-temperature incubator introduced with the mixture of 95% N2+5% CO2. Then the hypoxia treated cells are subjected to reoxygenation in normal condition for 5 h with the high glucose medium DMEM (containing 10% FBS) which has been previously saturated with mixture of 95% air+5% CO2. At the same time, the cells are incubated with compatible compositions. After treating the experimental groups of cells, the culture solution is discarded. The cells are washed once with pre-cooled PBS. 500 μl pre-cooled 50% perchlorate solution is added in each well. Pyrolysis of cells take place on ice for 5 min. The cells are scrapped, 600 μl of 2.5 mol/L Na2CO3 solution is added, and pH is adjusted to 6.5. Pyrolysis mixture is collected in centrifuge tube and centrifuged in 4° C. Content of supernatant is determined by HPLC. […] The content is determined with HPLC method. The equipment is LC-2010C quaternionic pump high performance liquid chromatogram, analytical column is Diamonsil C18 column (250 mm×4.6 mm, 5 μm), detection wavelength: 260 nm, mobile phase is 0.05M phosphate buffer (pH 6.5), detector is UV-vis detector. Flow-rate of column is 0.8 ml/min, sample size is 20 μl, and analytical time is 12 min, the data is processed using LCsolution chromatography workstation (Japan, […]).

[5] = system: rat primary cardiac myocytes; test: MTT cell activity of rat primary cardiac myocytes injured by hypoxia/reoxygenation; format: cell-based; details: 30 μM, 24 h pre-treatment, hypoxia 6 h, reoxygenation 5 h
Experimental: Wistar ventricular myocytes of neonatal rat aged 2 d are isolated under asepsis condition, then the myocytes are digested with mixture of digestive enzymes (0.06% trypsin and 0.1% type II collagenase mixed in equal amount) for multiple times in a short time. Cardiac myocytes are purified using differential adhesion method. […] The cells are cultured for 24 hours, then the supernatant is discarded, and the cells are washed with PBS three times. […] After pre-treatment for 24 h, all of the hypoxia/reoxygenation injury groups are placed in glucose-free Earle's solution which has been previously saturated with mixture of 95% N2+5% CO2 for 1 hour. The cells are cultured in hypoxic condition for 6 h at 37° C. in constant-temperature incubator introduced with the mixture of 95% N2+5% CO2. Then the hypoxia treated cells are subjected to reoxygenation in normal condition for 5 h with the DMEM high glucose medium (containing 10% FBS) which has been previously saturated with mixture of 95% air+5% CO2. At the same time, the cells are incubated with the administration of compatible compositions. After treating the experimental groups of cells, 20 μg/ml MTT is added, and each experimental group is cultured for 4 h, then MTT is solved in 150 μl DMSO. OD of each well is read by ELISA meter at wavelength of 490 nm, and activity of cells is determined.

SHP-2 = biological target: T1, SHP-2 (Homo sapiens, UniProt Q06124); details: previous studies; cited from earlier work
T1 sequence (Q06124 1-593): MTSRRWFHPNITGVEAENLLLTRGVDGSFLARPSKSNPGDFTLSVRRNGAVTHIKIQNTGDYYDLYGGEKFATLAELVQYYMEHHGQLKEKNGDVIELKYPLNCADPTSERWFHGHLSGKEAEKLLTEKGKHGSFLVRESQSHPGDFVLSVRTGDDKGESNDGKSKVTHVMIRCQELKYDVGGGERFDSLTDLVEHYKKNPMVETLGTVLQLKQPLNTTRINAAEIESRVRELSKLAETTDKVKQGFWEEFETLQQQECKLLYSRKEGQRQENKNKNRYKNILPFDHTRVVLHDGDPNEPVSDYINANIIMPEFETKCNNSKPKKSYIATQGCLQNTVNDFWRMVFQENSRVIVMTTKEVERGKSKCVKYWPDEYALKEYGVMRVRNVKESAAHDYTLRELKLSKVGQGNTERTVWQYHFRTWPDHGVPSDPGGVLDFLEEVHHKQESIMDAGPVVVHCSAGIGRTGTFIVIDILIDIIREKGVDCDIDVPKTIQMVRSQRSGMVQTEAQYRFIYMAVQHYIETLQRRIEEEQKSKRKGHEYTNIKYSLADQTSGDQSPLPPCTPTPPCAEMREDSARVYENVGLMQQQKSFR

[6] = system: rat H9c2 cardiac myocytes; test: MTT cell activity of H9c2 cardiac myocytes after hypoxia/reoxygenation injury; format: cell-based; details: total 30 μM, 12 h preincubation, hypoxia 6 h, reoxygenation 5 h
Experimental: Rat cardiac myocytes H9c2 in logarithmic growth phase are taken. After digestion, the cells are resuspended with DMEM medium (containing 10% FBS), then inoculated into 96-well plate and normally cultured in incubator of 37° C. and 5% CO2. After entering logarithmic growth phase, the cells are divided into following groups for experiment: (1) normal culture group (Control group): during the experiment, cells are normally cultured in incubator of 37° C. and 5% CO2; (2) […] Model group (Model group): normal culture fluid for the experimental cells in logarithmic growth phase is replaced with glucose-free Earle's solution which has been previously saturated with mixture of 95% N2+5% CO2 for 1 hour. Then the cells are cultured in hypoxic condition for 6 h at 37° C. in constant-temperature incubator introduced with the mixture of 95% N2+5% CO2. Then the hypoxia treated cells are subjected to reoxygenation in normal condition for 5 h with the high glucose medium DMEM (containing 10% FBS) which has been previously saturated with mixture of 95% air+5% CO2. (3) pre-treated compatible group of luteilon, kaempferol and luteolin-7-O-glucoside: H9c2 cells are preincubated for 12 h with luteilon, kaempferol and luteolin-7-O-glucoside combined in different ratios. Then, the normal culture solution is replaced with glucose-free Earle's solution which has been previously saturated with mixture of 95% N2+5% CO2 for 1 hour. After anoxic treatment for 6 h with N2 anoxic tank, the cells are subjected to reoxygenation for 5 h in normal culture condition with normal culture solution; meanwhile the cells are incubated with the administration of each compatible drug. After treatment, 20 μg/ml MTT is added, and each experimental group is cultured for 4 h, then MTT is solved in 150 μl DMSO. OD of each well is read by ELISA meter at wavelength of 490 nm, and activity of cells is determined.

PTEN = PTEN (Homo sapiens, UniProt P60484); details: previous studies; cited from earlier work
Sequence of PTEN (P60484 whole entry, species assumed): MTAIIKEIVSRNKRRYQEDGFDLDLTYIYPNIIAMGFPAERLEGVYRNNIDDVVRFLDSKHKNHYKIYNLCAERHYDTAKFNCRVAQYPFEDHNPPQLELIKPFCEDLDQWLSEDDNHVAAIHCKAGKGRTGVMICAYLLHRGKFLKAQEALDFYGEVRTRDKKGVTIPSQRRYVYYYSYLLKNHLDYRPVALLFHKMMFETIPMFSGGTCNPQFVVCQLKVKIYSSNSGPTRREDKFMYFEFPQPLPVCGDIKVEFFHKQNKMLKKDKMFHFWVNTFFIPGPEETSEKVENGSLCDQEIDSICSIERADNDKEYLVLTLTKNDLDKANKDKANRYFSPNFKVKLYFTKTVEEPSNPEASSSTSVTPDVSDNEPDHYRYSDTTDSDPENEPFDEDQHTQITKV

Compound: O=c1c(O)c(-c2ccc(O)cc2)oc2cc(O)cc(O)c12 [Kaempferol, kaempferol]
- pH of supernatant [1]: 7.10
- Leak rate (%) of LDH [2]: 111.25%
- heart rate [3]: maintain
- mitochondrial Ca2+ [3]: reduce
- ADP [4]: 17.15 µg/mL
- AMP [4]: 7.15 µg/mL
- ATP [4]: 84.72 µg/mL
- protection rate of cell activity (%) [5]: 69.22%
- activity of SHP-2 (SHP-2): inhibit
- protection rate of cell activity (%) [6]: 76.97 ± 6.67%
- activity of PTEN (PTEN): inhibit

Compound: O=c1cc(-c2ccc(O)c(O)c2)oc2cc(O)cc(O)c12 [Luteilon, luteolin]
- pH of supernatant [1]: 7.11
- Leak rate (%) of LDH [2]: 122.37%
- function of myocardial contraction [3]: improve
- mitochondrial membrane potential [3]: increase
- ADP [4]: 15.38 µg/mL
- AMP [4]: 7.59 µg/mL
- ATP [4]: 102.88 µg/mL
- protection rate of cell activity (%) [5]: 68.08%
- protection rate of cell activity (%) [6]: 81.93 ± 7.18%

Compound: O=c1cc(-c2ccc(O)c(O)c2)oc2cc(O[C@@H]3O[C@H](CO)[C@@H](O)[C@H](O)[C@H]3O)cc(O)c12 [Luteolin-7-0-glucoside, luteolin-7-O-glucoside]
- pH of supernatant [1]: 7.08
- Leak rate (%) of LDH [2]: 115.18%
- level of cytoplasmic Ca2+ [3]: reduce
- oxygen free radical damage [3]: prevent
- ADP [4]: 17.12 µg/mL
- AMP [4]: 8.97 µg/mL
- ATP [4]: 69.45 µg/mL
- protection rate of cell activity (%) [5]: 71.17%
- protection rate of cell activity (%) [6]: 78.57 ± 4.54%
